Results as given in ChEMBL document CHEMBL1201862, “PubChem BioAssay data set” (2004).
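Method: 48-hour compound exposure of cells in 96-well plates, five concentrations, linear interpolation of endpoints. At the GI50, growth is halved.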 Activity calls are given as the source filed them. No stated cut-off is given here; in the data, active = GI50 up to about 1.1 µM and inactive = higher.

Assays:
Test in all cases: inhibition of tumour cell growth, NCI panel, 48 h
CAKI-1 = system: CAKI-1
COLO 205 = system: COLO 205
DU-145 = system: DU-145
HCC 2998 = system: HCC 2998
HOP-62 = system: HOP-62
HOP-92 = system: HOP-92
HT-29 = system: HT-29
Hs-578T = system: Hs-578T
IGROV-1 = system: IGROV-1
KM12 = system: KM12
LOX IMVI = system: LOX IMVI
M14 = system: M14
MDA-MB-231 = system: MDA-MB-231
MDA-MB-435 = system: MDA-MB-435
NCI-H522 = system: NCI-H522
NCI/ADR-RES = system: NCI/ADR-RES
SF-295 = system: SF-295
SK-MEL-2 = system: SK-MEL-2
SNB-75 = system: SNB-75
T47D = system: T47D

SMILES | GI50 (CAKI-1) | GI50 (COLO 205) | GI50 (DU-145) | GI50 (HCC 2998) | GI50 (HOP-62) | GI50 (HOP-92) | GI50 (HT-29) | GI50 (Hs-578T) | GI50 (IGROV-1) | GI50 (KM12) | GI50 (LOX IMVI) | GI50 (M14) | GI50 (MDA-MB-231) | GI50 (MDA-MB-435) | GI50 (NCI-H522) | GI50 (NCI/ADR-RES) | GI50 (SF-295) | GI50 (SK-MEL-2) | GI50 (SNB-75) | GI50 (T47D)
COc1cc(C2c3cc4c(cc3OC(NCCc3ccccc3)C2C)OCO4)cc(OC)c1OC (stereo not given) | 0.291 µM (active) | 0.242 µM (active) | 0.431 µM (active) | 0.282 µM (active) | 0.614 µM (active) | 4.67 µM (inactive) | 0.321 µM (active) | 0.138 µM (active) | 0.367 µM (active) | 0.316 µM (active) | 0.497 µM (active) | 0.356 µM (active) | 0.249 µM (active) | 0.111 µM (active) | 0.248 µM (active) | 0.31 µM (active) | 0.2 µM (active) | 0.393 µM (active) | 0.198 µM (active) | 0.295 µM (active)
OC1C2[C@@H](O)CCCN2C[C@@H](O)[C@H]1O (stereo not given in full) | > 100 µM (inactive) | > 100 µM (inactive) | > 100 µM (inactive) | > 100 µM (inactive) | > 100 µM (inactive) | > 100 µM (inactive) | > 100 µM (inactive) | > 100 µM (inactive) | > 100 µM (inactive) | > 100 µM (inactive) | > 100 µM (inactive) | > 100 µM (inactive) | > 100 µM (inactive) | > 100 µM (inactive) | 71.1 µM (inactive) | > 100 µM (inactive) | > 100 µM (inactive) | > 100 µM (inactive) | > 100 µM (inactive) | > 100 µM (inactive)
CCCCCC/C=C\CCCCCCCCCC1=CC(=O)C=C(OC)C1=O [IRISQUINONE A] | 3.48 µM (inactive) | 1.63 µM (inactive) | 5.62 µM (inactive) | 8.24 µM (inactive) | 3.48 µM (inactive) | 2.52 µM (inactive) | 3.19 µM (inactive) | 7.36 µM (inactive) | 2.23 µM (inactive) | 3.75 µM (inactive) | 4.06 µM (inactive) | 4.19 µM (inactive) | 4.36 µM (inactive) | 3.81 µM (inactive) | 2 µM (inactive) | 3.8 µM (inactive) | 3.6 µM (inactive) | 4.34 µM (inactive) | 2.43 µM (inactive) | 2.23 µM (inactive)
